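How tested: cells in 96-well plates exposed to compound for 48 hours at five concentrations. TGI denotes the concentration required for complete inhibition of growth.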
Assays:
Assay in all cases: NCI tumour cell line growth inhibition, 48 h
UACC-257 melanoma = tested on: UACC-257 melanoma
HCT-15 colon = tested on: HCT-15 colon
TK-10 renal = tested on: TK-10 renal
EKVX NSCLC = tested on: EKVX NSCLC
CCRF-CEM leukemia = tested on: CCRF-CEM leukemia
SW-620 colon = tested on: SW-620 colon
M14 melanoma = tested on: M14 melanoma
ACHN renal = tested on: ACHN renal
COLO 205 colon = tested on: COLO 205 colon
NCI-H23 lung = tested on: NCI-H23 lung
SNB-75 CNS = tested on: SNB-75 CNS
OVCAR-3 ovarian = tested on: OVCAR-3 ovarian
LOX IMVI melanoma = tested on: LOX IMVI melanoma
UACC-62 melanoma = tested on: UACC-62 melanoma
DMS 114 small cell lung = tested on: DMS 114 small cell lung
SF-539 CNS = tested on: SF-539 CNS
HT29 colon = tested on: HT29 colon
SK-MEL-2 melanoma = tested on: SK-MEL-2 melanoma
SF-295 CNS = tested on: SF-295 CNS
K-562 leukemia = tested on: K-562 leukemia
OVCAR-8 ovarian = tested on: OVCAR-8 ovarian
KM20L2 colon = tested on: KM20L2 colon
A498 renal = tested on: A498 renal
DLD-1 colon = tested on: DLD-1 colon
HL-60(TB) leukemia = tested on: HL-60(TB) leukemia
SNB-78 CNS = tested on: SNB-78 CNS
NCI-H226 lung = tested on: NCI-H226 lung
MOLT-4 leukemia = tested on: MOLT-4 leukemia
A549 NSCLC = tested on: A549 NSCLC
SK-MEL-28 melanoma = tested on: SK-MEL-28 melanoma
HCT-116 colon = tested on: HCT-116 colon
NCI-H522 lung = tested on: NCI-H522 lung
IGROV1 ovarian = tested on: IGROV1 ovarian
NCI-H460 lung = tested on: NCI-H460 lung
XF 498 CNS = tested on: XF 498 CNS
SF-268 CNS = tested on: SF-268 CNS
U251 CNS = tested on: U251 CNS
HOP-62 NSCLC = tested on: HOP-62 NSCLC
HCC-2998 colon = tested on: HCC-2998 colon
OVCAR-4 ovarian = tested on: OVCAR-4 ovarian
RPMI-8226 leukemia = tested on: RPMI-8226 leukemia
RXF 393 renal = tested on: RXF 393 renal
MALME-3M melanoma = tested on: MALME-3M melanoma
SK-OV-3 ovarian = tested on: SK-OV-3 ovarian
HOP-18 NSCLC = tested on: HOP-18 NSCLC
LXFL 529 NSCLC = tested on: LXFL 529 NSCLC
UO-31 renal = tested on: UO-31 renal
KM12 colon = tested on: KM12 colon
M19-MEL melanoma = tested on: M19-MEL melanoma
SN12C renal = tested on: SN12C renal
SNB-19 CNS = tested on: SNB-19 CNS
OVCAR-5 ovarian = tested on: OVCAR-5 ovarian
HOP-92 NSCLC = tested on: HOP-92 NSCLC
786-0 renal = tested on: 786-0 renal
SK-MEL-5 melanoma = tested on: SK-MEL-5 melanoma
SR leukemia = tested on: SR leukemia
RXF-631 renal = tested on: RXF-631 renal
DMS 273 small cell lung = tested on: DMS 273 small cell lung
CAKI-1 renal = tested on: CAKI-1 renal

Measured: TGI

O=c1ccc2ccccc2o1
not listed: SK-MEL-5 melanoma | SR leukemia | RXF-631 renal | DMS 273 small cell lung | CAKI-1 renal
> 100 µM: all other assays above

CC(=O)O[C@H]1[C@@H]2[C@@H]3[C@@H](C[C@H]1C)[C@@H](C)CO[C@@]1(C)CC/C=C(/C)C[C@@H]2O[C@@H]31
not listed: SNB-78 CNS
> 100 µM: all other assays above

O=C1CC2CCCCC2=C1O (stereo not given)
not listed: M14 melanoma | HT29 colon | KM20L2 colon | NCI-H226 lung | HOP-18 NSCLC | HOP-92 NSCLC | SR leukemia
> 100 µM: all other assays above

N#C/C(=C/c1cccnc1)C(=O)c1ccccc1
not listed: A498 renal | IGROV1 ovarian | RXF-631 renal
> 100 µM: all other assays above

Source: PubChem BioAssay (NCI)
